For series [1], the system named is isolated rat bladder strips. As to the kind of experiment: Inhibition of contractions in isolated rat bladder strips. The note with it: 15 mM KCl-enhanced contractile activity; for IC50: 0.5 h, 30 minute challenge; for inhibition at 30 µM: read-out: % Inhibition @ 30 μM (maximum percentage inhibition of contractile activity). An excerpt: Sprague-Dawley rats (150–200 g) were rendered unconscious by CO2 asphyxiation and then euthanized by cervical dislocation. The bladder was removed into warm (37 deg.C.) physiological salt solution (PSS) of the following composition (mM): NaCl, 118.4; KCl, 4.7; CaCl2, 2.5; […]; NaHCO3, 24.9; KH2PO4, 1.2; glucose, 11.1; EDTA, 0.023; gassed with 95% O2; […]; pH 7.4. The bladder was opened and then cut into strips 1–2 mm in width and 7–10 mm in length. The strips are subsequently suspended in a 10 mL tissue bath under an initial resting tension of 1.5 g. The strips were held in place by two surgical clips one of which is attached to a fixed hook while the other is attached to an isometric force transducer. […] The carbachol was then washed out and the tissue allowed to relax to its resting level of activity. Following a further 30 minute period of recovery an additional 15 mM KCl were introduced into the tissue bath. […] Following stabilization of this enhanced level of contractile activity, incremental increases in the concentration of test compound or vehicle were introduced into the tissue bath. Contractile activity was measured for each compound or vehicle concentration during the last minute of a 30 minute challenge.
The isometric force developed by the bladder strips was measured using a […] to elicit 50% inhibition of pre-drug contractile activity (IC50 concentration) and was calculated from this concentration-response curve.

The source of these data is patent US7115620B2, “1,3-disubstituted-2-thioxo-imidazolidine-4,5-diones as potassium channel openers” (Wyeth, priority 2001, dated 2006).

Molecules are shown by their SMILES.

Regarding `CC(C)(C)CN1C(=O)C(=O)N(c2ccc(C#N)cc2)C1=S` [Example 2, 4-[3-(2,2-Dimethyl-propyl)-4,5-dioxo-2-thioxo-imidazolidin-1-yl]-benzonitrile], the melting point was in the range of 128 to 129 °C. Further, the 50% inhibitory concentration (IC50) in series [1] is 3.4 ± 0.8 µM.

Turning to `C[C@@H](N1C(=O)C(=O)N(c2ccc(C#N)cc2)C1=S)C(C)(C)C` [Example 6, 4-[4,5-Dioxo-2-thioxo-3-((1R)-1,2,2-trimethyl-propyl)-imidazolidin-1-yl]-benzonitrile], the melting point was 197.6 to 197.8 °C. Moreover, the half-inhibitory concentration (IC50) in series [1] came out at 4.2 ± 1.4 µM.

The molecule `CC(N1C(=O)C(=O)N(c2cccc(C#N)c2)C1=S)C(C)(C)C` (stereo not shown) [Example 7, 3-[4,5-Dioxo-2-thioxo-3-(1,2,2-trimethyl-propyl)-imidazolidin-1-yl]-benzonitrile] showed a melting point of 168.1 to 168.7 °C. In addition, the inhibition at 30 µM in series [1] came out at 29.2%.

`CCC(C)(C)N1C(=O)C(=O)N(c2ccc(C#N)cc2)C1=S` [Example 3, 4-[3-(1,1-Dimethyl-propyl)-4,5-dioxo-2-thioxo-imidazolidin-1-yl]-benzonitrile]: the melting point was 173.1 to 174.3 °C. The half-maximal inhibitory concentration (IC50) in series [1] worked out at 25.7 ± 3.7 µM.

As for `CC(C)(C)CN1C(=O)C(=O)N(c2ccc(F)cc2F)C1=S` [Example 11, 1-(2,4-Difluoro-phenyl)-3-(2,2-dimethyl-propyl)-2-thioxo-imidazolidine-4,5-dione], the melting point was 156.2 to 156.9 °C. Further, the inhibition at 30 µM in series [1] stood at 30.6%.

Take `CC(N1C(=O)C(=O)N(c2ccc(C#N)cc2)C1=S)C(C)(C)C` (racemic) [Example 1, 4-[4,5-Dioxo-2-thioxo-3-(1,2,2-trimethyl-propyl)-imidazolidin-1-yl]-benzonitrile]: the melting point is 219.6 to 219.9 °C. In addition, the IC50 in series [1] was found to be 3.3 ± 0.08 µM.

Molecule `CCc1cc(C#N)ccc1N1C(=O)C(=O)N(C(C)(C)CC)C1=S` [Example 5, 4-[3-(1,1-Dimethyl-propyl)-4,5-dioxo-2-thioxo-imidazolidin-1-yl]-3-ethyl-benzonitrile] displayed a melting point of 172.8 to 173.3 °C. For the same molecule, in series [1], the IC50 was determined as 28.9 ± 2.6 µM.

Take `CN(C)c1ccc(N2C(=O)C(=O)N(CC(C)(C)C)C2=S)cc1.Cl` [Example 9, 1-(4-Dimethylamino-phenyl)-3-(2,2-dimethyl-propyl)-2-thioxo-imidazolidine-4,5-dione Hydrochloride]: the melting point fell in the range of 244 to 246 °C. The inhibition at 30 µM in series [1] was 33.2%.

In turn, `CC(C)(C)CN1C(=O)C(=O)N(c2ccc(F)cc2)C1=S` [Example 14, 1-(2,2-Dimethyl-propyl)-3-(4-fluoro-phenyl)-2-thioxo-imidazolidine-4,5-dione] displayed a melting point of 165.2 to 166.3 °C. Besides, in series [1], the inhibition at 30 µM worked out at 15%.

For `CC(N1C(=O)C(=O)N(c2ccc(Cl)cc2)C1=S)C(C)(C)C` (stereo not shown) [Example 12, 1-(4-Chloro-phenyl)-2-thioxo-3-(1,2,2-trimethyl-propyl)-imidazolidine-4,5-dione], the melting point fell in the range of 198.8 to 199.5 °C. Besides, the inhibition at 30 µM in series [1] stood at 24.3%.

The molecule `CC(C)(C)CN1C(=O)C(=O)N(c2cccnc2)C1=S` [Example 15, 1-(2,2-Dimethyl-propyl)-3-pyridin-3-yl-2-thioxo-imidazolidine-4,5-dione] displayed a melting point of 111.4 to 112.8 °C. Moreover, in series [1], the IC50 stood at 3.6 ± 0.8 µM.

`CC(N1C(=O)C(=O)N(c2ccc(F)cc2F)C1=S)C(C)(C)C` (stereo not shown) [Example 10, 1-(2,4-Difluoro-phenyl)-2-thioxo-3-(1,2,2-trimethyl-propyl)-imidazolidine-4,5-dione] yielded a melting point of 155.2 to 156 °C. In series [1], the inhibition at 30 µM came to 23.1%.

Take `CC(N1C(=O)C(=O)N(c2ccc(Br)cc2)C1=S)C(C)(C)C` (stereo not shown) [Example 8, 1-(4-Bromo-phenyl)-2-thioxo-3-(1,2,2-trimethyl-propyl)-imidazolidine-4,5-dione]: the melting point was 207.1 to 207.9 °C. Moreover, in series [1], the inhibition at 30 µM turned out to be 22.4% and the half-maximal inhibitory concentration (IC50) amounted to 27.2 µM.

`CC(N1C(=O)C(=O)N(c2ccc(C(C)(C)C)cc2)C1=S)C(C)(C)C` (stereo not shown) [Example 13, 1-(4-tert-Butyl-phenyl)-2-thioxo-3-(1,2,2-trimethyl-propyl)-imidazolidine-4,5-dione] had a melting point of 208.9 to 209.5 °C. In series [1], the inhibition at 30 µM is 18.3%.

As to `CC(C)(C)N1C(=O)C(=O)N(c2ccc(C#N)cc2)C1=S` [Example 4, 4-(3-tert-Butyl-4,5-dioxo-2-thioxo-imidazolidin-1-yl)-benzonitrile], the melting point was 200.4 to 201.3 °C. Also, in series [1], the 50% inhibitory concentration (IC50) was determined as 30 ± 5 µM.
